Consider four compounds from PMC10648875 (Antimicrobial Agents and Chemotherapy, 2023).

The test system of series [1] is PAM4745 producing P99. Briefly: MIC, engineered isogenic strain. In kind it is cell-based, P. aeruginosa. The settings on record: P99, class C; BLIs at fixed 4 µg/mL.
Series [2] deals with PAM4910 producing VEB-2. In words: MIC, engineered isogenic strain. Format: cell-based, P. aeruginosa. The settings on record: VEB-2, class A; BLIs at fixed 4 µg/mL.
For series [3], the system named is PAM4801 producing GES-20. In words: MIC, engineered isogenic strain. The settings on record: GES-20, class A; BLIs at fixed 4 µg/mL. Format: cell-based, P. aeruginosa.
Series [4] deals with PAM4821 producing CTX-M-25. In words: MIC, engineered isogenic strain. Format: cell-based, P. aeruginosa. The conditions noted are these: CTX-M-25, class A; BLIs at fixed 4 µg/mL.
For series [5], the system named is PAM4907 producing PER-4. Briefly: MIC, engineered isogenic strain. In kind it is cell-based, P. aeruginosa. The conditions noted are these: PER-4, class A; BLIs at fixed 4 µg/mL.
For series [6], the system named is Escherichia coli NCTC 13353 (ECM7514), CTX-M-15. Further details: method as in earlier work. The conditions noted are these: quality control range; ref CLSI; cited from earlier work.
The test system of series [7] is PAM4823 producing CTX-M-27. Briefly: MIC, engineered isogenic strain. In kind it is cell-based, P. aeruginosa. The conditions noted are these: CTX-M-27, class A; BLIs at fixed 4 µg/mL.
Series [8] deals with PAM4879 producing CcrA. In words: MIC, engineered isogenic strain. Format: cell-based, P. aeruginosa. The settings on record: class B, BLIs at fixed 4 µg/mL.
Series [9] has as its system Klebsiella pneumoniae ATCC 700603 (KPM2881), SHV-18. Further details: method as in earlier work. The conditions noted are these: quality control range; ref CLSI; cited from earlier work.
Series [10] deals with K. pneumoniae ATCC BAA-2814 (KP1074), KPC-3. Also on record: method as in earlier work. The conditions noted are these: quality control range; ref CLSI; cited from earlier work.
In series [11] the test system is K. pneumoniae ATCC BAA-1705 (KPM1123), KPC-2. Also on record: method as in earlier work. The settings on record: quality control range; ref CLSI; cited from earlier work.
Series [12] concerns the target IMP-1 (Serratia marcescens, UniProt P52699). Briefly: Ki of metallo-β-lactamase inhibition, purified enzyme. The conditions noted are these: 10-minute preincubation; imipenem substrate; read-out: Ki. In kind it is biochemical. Here is the method:
(§1) The majority of purified β-lactamase enzymes used in the study were either expressed and purified internally ([35]) or obtained from Emerald Biostructures (Bainbridge Island, WA, USA). L1 enzyme was purified as described in reference ([36]).
(§2) Enzymes were mixed with BLIs at concentrations varying from 160 to 0.0027 µM in 50-mM Na-phosphate pH7.0, 0.1-mg/mL bovide serum albumin (BSA) (buffer A; 20-µM ZnCl2 was also added for all metalloenzymes) and incubated for 10 minutes at 37°C. Nitrocefin (50 µM) (10 µM for SHV-12) or 100 µM of imipenem (prewarmed at 37°C for 10 minutes) was added, and substrate cleavage profiles were recorded at 37°C at 490 nm every 10 seconds for 10 minutes or at 294 nm every 30 seconds for 1 hour for nitrocefin and imipenem, respectively. […] Ki app values (Ki for metalloenzymes) were calculated by the method of Waley ([37]).

Series [13] addresses IMP-26 (Pseudomonas aeruginosa, UniProt D0V558). Described as above. In kind it is biochemical. The settings on record: 10-minute preincubation; nitrocefin substrate. As to the method:
as §1, §2

The target in series [14] is SHV-12 (Klebsiella pneumoniae, UniProt P0AD64, E235K/G234S/L31Q). Briefly: Ki app of β-lactamase inhibition, purified enzyme. Format: biochemical. The settings on record: 10-minute preincubation; nitrocefin substrate; read-out: Ki app. As to the method: as §1, §2
Chain of SHV-12 (P0AD64 22-286 L31Q/G234S/E235K): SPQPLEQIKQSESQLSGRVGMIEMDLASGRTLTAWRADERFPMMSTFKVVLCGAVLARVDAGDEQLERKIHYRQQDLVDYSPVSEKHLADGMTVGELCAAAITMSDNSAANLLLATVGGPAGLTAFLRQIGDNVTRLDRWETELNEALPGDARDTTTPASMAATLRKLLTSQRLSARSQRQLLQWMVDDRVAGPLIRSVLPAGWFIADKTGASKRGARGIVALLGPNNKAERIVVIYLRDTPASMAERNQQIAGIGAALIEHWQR
Details of series [15]: method as in PMID 31871094. The conditions noted are these: cited from earlier work.
Series [16] relates to NDM-9 (lysate of NDM-9-producing strain). The conditions noted are these: read-out: IC50 of inhibition of imipenem hydrolysis in cell lysates; cited from earlier work.
Series [17] has as its target KPC-2 (Klebsiella pneumoniae, UniProt Q9F663). In words: Ki app of β-lactamase inhibition, purified enzyme. In kind it is biochemical. The settings on record: 10-minute preincubation; nitrocefin substrate. As to the method:
as §1, §2

The conditions of series [18]: cited from earlier work.

≈ marks a conversion by molar mass, not a printed value. A value given as a limit tells only on which side of the number the result lay.

Chain of KPC-2 (Q9F663 25-293 limits assumed): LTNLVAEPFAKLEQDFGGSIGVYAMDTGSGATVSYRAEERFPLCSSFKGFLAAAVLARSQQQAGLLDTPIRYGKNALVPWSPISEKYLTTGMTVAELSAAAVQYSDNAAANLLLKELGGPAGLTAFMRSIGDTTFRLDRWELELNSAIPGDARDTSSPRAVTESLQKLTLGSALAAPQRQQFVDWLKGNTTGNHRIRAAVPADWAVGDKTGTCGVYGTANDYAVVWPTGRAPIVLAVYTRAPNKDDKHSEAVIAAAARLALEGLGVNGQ
Chain of IMP-1 (P52699 19-246 limits assumed): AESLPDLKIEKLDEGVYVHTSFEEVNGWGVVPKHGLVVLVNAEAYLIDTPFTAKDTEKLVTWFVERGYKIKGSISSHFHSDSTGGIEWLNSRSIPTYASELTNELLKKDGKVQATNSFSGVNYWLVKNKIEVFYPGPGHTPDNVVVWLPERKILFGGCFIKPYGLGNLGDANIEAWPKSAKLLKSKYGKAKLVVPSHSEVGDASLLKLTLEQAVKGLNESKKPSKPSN
Chain of IMP-26 (D0V558 entry or part of it): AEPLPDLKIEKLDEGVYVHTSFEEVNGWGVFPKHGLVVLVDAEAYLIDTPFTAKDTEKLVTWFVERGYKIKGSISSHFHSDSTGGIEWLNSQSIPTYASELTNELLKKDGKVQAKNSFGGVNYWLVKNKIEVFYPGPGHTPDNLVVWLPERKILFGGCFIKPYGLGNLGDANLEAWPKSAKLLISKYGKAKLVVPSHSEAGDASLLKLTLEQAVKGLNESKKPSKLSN

`CO/N=C(\C(=O)N[C@@H]1C(=O)N2C(C(=O)[O-])=C(C[N+]3(C)CCCC3)CS[C@H]12)c1csc(N)n1` [FEP, cefepime]: the MIC in series [1] was 8 µg/mL (≈ 16.6 µM); in series [2], over 64 µg/mL; in series [3] it was 2 µg/mL (≈ 4.16 µM); in [4], over 64 µg/mL; in series [5], 64 µg/mL (≈ 133 µM); in [7] it was over 64 µg/mL. The compound further returned a minimal inhibitory concentration (MIC) in [8] of 16 µg/mL (≈ 33.3 µM). In addition, the “CLSI approved MIC range” value is over 64 µg/mL in series [6] and 0.5 to 2 µg/mL in series [9].
`C[C@@H](O)[C@H]1C(=O)N2C(C(=O)O)=C(S[C@@H]3CN[C@H](C(=O)N(C)C)C3)[C@H](C)[C@H]12` [MEM, meropenem]: the MIC in series [1] stood at 1 µg/mL (≈ 2.61 µM); in [2] it was 0.25 µg/mL (≈ 0.652 µM); in series [3], 8 µg/mL (≈ 20.9 µM); in series [4], 0.5 µg/mL (≈ 1.3 µM); in series [5], 0.125 µg/mL (≈ 0.326 µM); in series [7], 0.5 µg/mL (≈ 1.3 µM). Moreover, inhibition of growth in series [8] (MIC) required 2 µg/mL (≈ 5.22 µM). Further, the “CLSI approved MIC range” value in series [10] was 32 to 256 µg/mL; in [11], 8.0 to 64 µg/mL.
Turning to `NCCN[C@H]1CC[C@H](CC(=O)N[C@H]2Cc3cccc(C(=O)O)c3OB2O)CC1` [Taniborbactam, taniborbactam], the Ki is over 20000 nM in series [12], over 20000 nM in series [13] and 0.15 ± 0.03 nM in series [14]. Further, in series [15], the “concentration at which direct antibacterial activity is lacking” value was over 512 µg/mL.
`O=C(O)c1c(F)ccc2c1OB(O)[C@@H]1C[C@H]21` [Xeruborbactam, xeruborbactam]: the IC50 in series [16] is 1200 ± 100 nM. The compound further showed a Ki in series [17] of 1.4 ± 0.2 nM. Further, the steady-state plasma concentration in series [18] (phase I subjects, 500-mg loading dose then 250 mg every 8 hours by 3-hour infusion) is given as ~ 7 µg/mL. In addition, in [18] (phase I, intravenous or oral (prodrug), doses of 1,000 mg/day or less), the safety and tolerability result is “safe and well tolerated”.

As usually defined, the MIC is the smallest concentration in the dilution series that meets the test's criterion for growth inhibition. Low readings indicate inhibition by little substance, high ones a need for much substance. As usually defined, the IC50 is the concentration that inhibits the measured activity by half.
